These results are taken from patent US7528138B2, “Pyrazolo[1,5-a]pyrimidines useful as inhibitors of protein kinases” (Vertex Pharmaceuticals Incorporated, priority 2004, dated 2009).

Test [1] deals with Aurora-B (Homo sapiens, UniProt Q96GD4). Kind of test: Aurora B (Aurora-1) Inhibition Assay, 33P incorporation. The following applies: enzyme inhibition data (Ki), Table 11; read-out: AurB Ki. It is filed as biochemical. The procedure:
An assay buffer solution is prepared which consists of 25 mM HEPES (pH 7.5), 10 mM MgCl2, 0.1% BSA and 10% glycerol. A 22 nM Aurora-B solution, also containing 1.7 mM DTT and 1.5 mM Kemptide (LRRASLG), is prepared in assay buffer. To 22 μL of the Aurora-B solution, in a 96-well plate, is added 2 μl of a compound stock solution in DMSO and the mixture is allowed to equilibrate for 10 minutes at 25° C. The enzyme reaction is initiated by the addition of 16 μl stock [γ-^33P]-ATP solution (˜20 nCi/μL) prepared in assay buffer, to a final assay concentration of 800 μM. The reaction is stopped after 3 hours by the addition of 16 μL 500 mM phosphoric acid and the levels of ^33P incorporation into the peptide substrate is determined by the following method.
A phosphocellulose 96-well plate (Millipore, Cat no. MAPHNOB50) is pre-treated with 100 μL of a 100 mM phosphoric acid prior to the addition of the enzyme reaction mixture (40 μL). The solution is left to soak on to the phosphocellulose membrane for 30 minutes and the plate subsequently is washed four times with 200 μL of a 100 mM phosphoric acid. To each well of the dry plate is added 30 μL of Optiphase ‘SuperMix’ liquid scintillation cocktail (Perkin Elmer) prior to scintillation counting (1450 Microbeta Liquid Scintillation Counter, Wallac). Levels of non-enzyme catalysed background radioactivity are determined by adding 16 μL of the 500 mM phosphoric acid to control wells, containing all assay components (which acts to denature the enzyme), prior to the addition of the [γ-^33P]-ATP solution. Levels of enzyme catalysed ^33P incorporation are calculated by subtracting mean background counts from those measured at each inhibitor concentration. For each Ki determination 8 data points, typically covering the concentration range 0-10 μM compound, are obtained in duplicate (DMSO stocks are prepared from an initial compound stock of 10 mM with subsequent 1:2.5 serial dilutions). Ki values are calculated from initial rate data by non-linear regression using the Prism software package (Prism 3.0, Graphpad Software, San Diego, Calif.).

Test [2] deals with T1, Rlk (Homo sapiens, UniProt P42681).
T1 sequence (P42681 1-527): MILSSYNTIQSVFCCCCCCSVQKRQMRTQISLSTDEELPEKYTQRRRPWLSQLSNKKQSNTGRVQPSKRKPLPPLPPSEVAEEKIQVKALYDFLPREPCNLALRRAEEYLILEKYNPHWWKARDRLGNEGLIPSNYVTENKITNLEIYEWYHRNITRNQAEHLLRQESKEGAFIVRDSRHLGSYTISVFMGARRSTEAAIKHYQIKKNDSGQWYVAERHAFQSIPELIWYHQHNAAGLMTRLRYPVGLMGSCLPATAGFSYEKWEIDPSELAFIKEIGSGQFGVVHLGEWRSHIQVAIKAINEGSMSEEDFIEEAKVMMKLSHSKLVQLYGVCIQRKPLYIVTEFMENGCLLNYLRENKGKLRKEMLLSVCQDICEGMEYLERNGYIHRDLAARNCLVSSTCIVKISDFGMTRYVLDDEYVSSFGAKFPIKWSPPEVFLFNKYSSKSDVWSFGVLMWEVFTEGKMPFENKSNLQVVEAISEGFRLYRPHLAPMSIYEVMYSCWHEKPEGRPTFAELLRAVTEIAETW
Briefly: RLK Inhibition Assay, coupled enzyme assay. The test is classed as biochemical. The following applies: enzyme inhibition data (Ki), Table 11. The procedure:
Compounds are screened for their ability to inhibit Rlk using a standard coupled enzyme assay (Fox et al., Protein Sci., (1998) 7, 2249). Assays are carried out in a mixture of 20 mM MOPS (pH 7.0), 10 mM MgCl2, 0.1% BSA and 1 mM DTT. Final substrate concentrations in the assay are 100 μM ATP (Sigma Chemicals) and 10 μM peptide (Poly Glu:Tyr 4:1). Assays are carried out at 30° C. and in the presence of 40 nM Rlk. Final concentrations of the components of the coupled enzyme system are 2.5 mM phosphoenolpyruvate, 300 μM NADH, 30 μg/ml pyruvate kinase and 10 μg/ml lactate dehydrogenase.
An assay stock buffer solution is prepared containing all of the reagents listed above, with the exception of ATP and the test compound of interest. 60 μl of the stock solution is placed in a 96 well plate followed by addition of 2 μl of DMSO stock containing serial dilutions of the test compound (typically starting from a final concentration of 7.5 μM). The plate is preincubated for 10 minutes at 30° C. and the reaction initiated by addition of 5 μl of ATP. Initial reaction rates are determined with a Molecular Devices SpectraMax Plus plate reader over a 10 minute time course. IC50 and Ki data are calculated from non-linear regression analysis using the Prism software package (GraphPad Prism version 3.0cx for Macintosh, GraphPad Software, San Diego Calif., USA).

Chain of Aurora-B (Q96GD4 whole entry): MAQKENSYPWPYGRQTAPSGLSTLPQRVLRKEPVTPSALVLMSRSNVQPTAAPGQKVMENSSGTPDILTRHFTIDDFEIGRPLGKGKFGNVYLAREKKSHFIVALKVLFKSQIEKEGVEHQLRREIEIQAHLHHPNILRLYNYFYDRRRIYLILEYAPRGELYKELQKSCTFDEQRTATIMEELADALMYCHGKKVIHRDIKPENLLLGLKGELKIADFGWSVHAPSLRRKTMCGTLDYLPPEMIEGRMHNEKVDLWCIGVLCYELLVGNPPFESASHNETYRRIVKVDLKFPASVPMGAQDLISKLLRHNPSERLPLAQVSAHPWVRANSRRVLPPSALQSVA

In the case of `Cc1ccc(-c2c(N)nn3cc(-c4ccncc4)cnc23)nc1` [Compound V-132], in test [1], the Ki (commonly a measure of affinity in units of concentration, obtained from inhibition or displacement) lay within 500 to 5000 nM. The same measure, in the same setting: the same measure for `Cc1ccnc(-c2c(N)nn3cc(-c4ccncc4)cnc23)c1` [Compound V-133]: 500 to 5000 nM; for `Nc1nn2cc(-c3ccncc3)cnc2c1-c1ncccc1OCc1ccccc1` [Compound V-134]: 500 to 5000 nM; for `Cc1cccnc1-c1c(N)nn2cc(-c3ccncc3)cnc12` [Compound V-135]: 500 to 5000 nM. On the same count and under the same terms, the same measure for `Cc1cccc(-c2c(N)nn3cc(-c4ccncc4)cnc23)n1` [Compound V-178]: 500 to 5000 nM; for `Nc1nn2cc(-c3ccncc3)cnc2c1-c1cc(N2CCCCC2)ncn1` [Compound V-179]: below 500 nM. `CN(C)CCN(C)C(=O)c1ccc(-c2cnc3c(-c4ccccn4)c(N)nn3c2)cc1` [Compound V-188]: in test [2], the Ki is below 500 nM. The same measure, in the same setting: the same measure for `CNCCCN(C)C(=O)c1ccc(-c2cnc3c(-c4ccccn4)c(N)nn3c2)cc1` [Compound V-191]: below 500 nM; for `NCc1ccc(-c2cnc3c(-c4ccccn4)c(N)nn3c2)cc1` [Compound V-195]: 500 to 5000 nM. On the same count and under the same terms, the same measure for `NCc1cccc(-c2cnc3c(-c4ccccn4)c(N)nn3c2)c1` [Compound V-202]: 500 to 5000 nM. Same read-out and setting: then `CN(C)Cc1ccc(-c2cnc3c(-c4ccccn4)c(N)nn3c2)cc1` [Compound V-214], with 500 to 5000 nM; and `CN(C)Cc1cccc(-c2cnc3c(-c4ccccn4)c(N)nn3c2)c1` [Compound V-215], with 500 to 5000 nM; and `Nc1nn2cc(-c3ccc(CN4CCNCC4)cc3)cnc2c1-c1ccccn1` [Compound V-217], with below 500 nM. With `Nc1nn2cc(-c3cccc(N4CCNCC4)c3)cnc2c1-c1ccccn1` [Compound V-222], in test [2], the Ki lay within 500 to 5000 nM. The same measure, in the same setting: then `Nc1nn2cc(-c3cccc(CN4CCNCC4)c3)cnc2c1-c1ccccn1` [Compound V-223], with 500 to 5000 nM; and `NC1NN2C=C(c3cccc(CN4CC[C@H](N)C4)c3)C=NC2=C1c1ccccn1` (stereo partly drawn) [Compound V-227], with 500 to 5000 nM.

In test [2], `NC1NN2C=C(c3cccc(CN4CCCNCC4)c3)C=NC2=C1c1ccccn1` (stereo not drawn) [Compound V-228] yielded a Ki of 500 to 5000 nM. Same read-out and setting: then `NC1CCN(Cc2cccc(C3=CN4NC(N)C(c5ccccn5)=C4N=C3)c2)CC1` (stereo not drawn) [Compound V-229], with 500 to 5000 nM; and `CNCCCN(C)Cc1ccc(-c2cnc3c(-c4ccccn4)c(N)nn3c2)cc1` [Compound V-230], with below 500 nM; and `Nc1nn2cc(-c3ccc(CN4CC[C@@H](N)C4)cc3)cnc2c1-c1ccccn1` [Compound V-231], with 500 to 5000 nM. For `Nc1nn2cc(-c3ccc(CNC4CCNCC4)cc3)cnc2c1-c1ccccn1` [Compound V-232], the Ki in test [2] lay in the range of 500 to 5000 nM. In turn, `Nc1nn2cc(-c3ccc(CN4CC[C@H](N)C4)cc3)cnc2c1-c1ccccn1` [Compound V-233] registered a Ki in test [2] of 500 to 5000 nM. For `Nc1nn2cc(-c3ccc(CN4CCC(N)CC4)cc3)cnc2c1-c1ccccn1` [Compound V-234], the Ki in test [2] was in the range of 500 to 5000 nM.

For the molecule `CNCc1ccc(-c2cnc3c(-c4ccccn4)c(N)nn3c2)cc1` [Compound V-236], the Ki in test [2] was in the range of 500 to 5000 nM.
